The record followed here is paper PMC7217877, “N-AS-triggered SPMs are direct regulators of microglia in a model of Alzheimer’s disease” (Nature Communications, 2020).

“And” between values parts separate entries of the source, which are not always exact repeats. Identical values can stand only once.

The test deals with APP/PS1 mice. Put plainly: lipid mediator-SPM profile of microglia isolated from treated mice (LC-MS/MS, Supplementary Table 2, Fig 4e-g). Format: in vivo, mouse. Further details: 15R-LXA4 level in microglia (sFig 4g) / RvE1 level in microglia (sFig 4g) / RvD1 level in microglia (sFig 4g): unit not given here. Here is the method: Lipid mediators metabololipidomics were performed according to previously described procedures with minor modifications[4],[30]. To confirm the biosynthesis of lipid mediators by recombinant COX2 treated with N-AS or aspirin, 10 U of human recombinant COX2 (Cayman, 60122) was incubated in the presence of 500 μM aspirin (Sigma-Aldrich, A5376) or N-AS (Sigma-Aldrich, 01912) at 37 °C for 30 min. The enzyme was filtered with a Microcon column (Millipore) to remove unreacted aspirin or N-AS and was then resuspended in 0.1 M Tris-HCl (pH 8.0). Next, 500 μM phenol (Sigma-Aldrich) and 1 μM hematin-porcine (Sigma-Aldrich) were added immediately before incubation with 100 μM AA, EPA or DHA (Cayman) at 37 °C for 2 h, respectively. The mixtures were incubated with 30 U of human 5-LOX (Cayman, 60402) containing 2 mM CaCl2 (Sigma-Aldrich), 1 mM ATP (Amresco) and 5 μM 13-HpODE (Cayman) as activators. Also, to validate the importance of residue S565 for N-AS-acetylation of COX2 and production of SPMs, 10 U of the COX2 S565A mutant was used in the above-described method. In addition, to confirm SPM generation in neurons and microglia, these cells were treated with Aβ and sonicated in neuronal and glial culture medium. […] To evaluate the relationship of N-AS and SPM production in microglia, microglia were isolated from WT, APP/PS1, and APP/PS1 treated with N-AS mice at 9 months of age. The microglia were sonicated and resuspended in microglial culture medium. The supernatants were incubated with 100 μM AA, EPA, and DHA (Cayman) at 37 °C for 2 h. A 50 μl aliquot of the mixture from each cell lysate was added to a 250 μl aliquot of 1 ng ml^−1 of 15S-LXA4-d5 (internal standard, Cayman) methanol solution. After vortexing for 10 min and centrifuging at 15,974×g for 5 min, the supernatant was subjected to the analysis of the lipid mediators using an Agilent 6470 Triple Quad LC-MS/MS system (Agilent) coupled to an Agilent 1290 HPLC system. Chromatographic separation was achieved using a Synergi Polar RP (4 μm, 2.0 mm i.d. × 150 mm, Phenomenex). Analytes were eluted with a mobile phase consisting of water: formic acid (100:0.1 v/v) (phase A) and methanol: formic acid (100:0.1 v/v) (phase B) in gradient elution mode for 23 min a flow rate of 0.2 ml min^−1. The elution gradient was as follows: from 0 to 0.1 min the content of phase A was 37% and the content of phase A was decreased to 10% and maintained for 5.5 min. The content of phase A was increased back to 37% at 6.0 min and maintained for 23 min. Quantification was carried out using MRM in negative ionization mode and collision energy of 10–15 eV. The mass transition from Q1 to Q3 is shown in Supplementary Table 2. In this study, the peak areas for all components were automatically integrated using MassHunter B 06.00.
Adult neurons and microglia were isolated from the mice brain as previously described. In brief, the cortex of WT (1, 3, 5, or 9-months-old), APP/PS1 (1, 3, 5, or 9-months-old), APP/PS1 treated with N-AS (9-months-old) or APP/PS1 treated with aspirin (9-months-old) mice were minced in Hibernate A (Gibco)/B27 (Invitrogen) medium and dissociated using papain (Worthington) solution. After tissue trituration, cells were separated by Optiprep (Sigma-Aldrich) density gradient centrifugation. The purity of the fractionated neurons and microglia were acutely confirmed by neuronal (NeuN, mouse, 1:200, Millipore, MAB377) and microglial (Iba1, rabbit, 1:1000, Wako, 019-19941) markers and the isolated neurons and microglia were acutely analyzed for the acetylation assay and lipid mediators metabololipidomics.
Transgenic mouse lines over-expressing the hAPP695swe (APP) and presenilin-1M146V (PS1) mutations were originated from GlaxoSmithKline (Harlow, UK)[32] and maintained as described previously. We purchased 5×FAD mice from Jackson Labs (Stock number. 34840-JAX). Because APP/PS1 and 5xFAD mice show sex differences in disease progression, we used only male mice. […]

Where [1] appears, read: APP/PS1 + N-AS, individual samples.

Regarding `CCCCCCCCCCCCC/C=C/[C@@H](O)[C@H](CO)NC(C)=O` [N-AS, N-((2S,3R,E)-1,3-Dihydroxyoctadec-4-en-2-yl)acetamide], under setting [1], the “15R-LXA4 level in microglia (sFig 4g)” value was 4570 and 5879.36 and 4407.58 and 3923.74 and 3772.92 and 3755.88 and 4463.12 and 4253.3; the “RvD1 level in microglia (sFig 4g)” value is 122.239 and 113.373 and 105 and 174.655 and 77.0631 and 102.088 and 125.141 and 80.0045; the “RvE1 level in microglia (sFig 4g)” value is 121.276 and 201.615 and 123.367 and 132.221 and 152.593 and 109.936 and 221.33. Besides, where the note is “APP/PS1/N-AS, mean±s.e.m., n=6”, the “11-HEPE in mouse microglia” value was 8016.0±190.1 pg/1*106cell, the “11-HETE in mouse microglia” value turned out to be 8870.6±557.1 pg/1*106cell, the “13-HDHA in mouse microglia” value is given as 6824.5±237.7 pg/1*106cell and the “15-HEPE in mouse microglia” value amounted to 5286.6±214.8 pg/1*106cell. Also, for the setting “APP/PS1/N-AS, mean±s.e.m., n=6”, the “15-HETE in mouse microglia” value is on record as 33117.1±1929.6 pg/1*106cell, the “15R-LXA4 in mouse microglia” value came out at 4378.2±241.8 pg/1*106cell, the “17-HDHA in mouse microglia” value is reported as 86224.5±10404.3 pg/1*106cell and the “18-HEPE in mouse microglia” value is listed as 31965.9±2934.1 pg/1*106cell. Besides, where the note is “APP/PS1/N-AS, mean±s.e.m., n=6”, the “AA in mouse microglia” value worked out at 39563.5±824.8 pg/1*106cell, the “DHA in mouse microglia” value worked out at 37384.7±1351.7 pg/1*106cell, the “EPA in mouse microglia” value came out at 406.6±21.1 pg/1*106cell and the “LTB4 in mouse microglia” value is on record as 876.5±71.9 pg/1*106cell. Where the note is “APP/PS1/N-AS, mean±s.e.m., n=6”, the “PGE3/PGD3 in mouse microglia” value was 2590.3±243.8 pg/1*106cell, the “PGH2/PGE2 in mouse microglia” value is reported as 3862.0±266.4 pg/1*106cell, the “RvD1 in mouse microglia” value is 112.4±10.9 pg/1*106cell and the “RvE1 in mouse microglia” value was 151.8±16.3 pg/1*106cell. Also, the “TxB3 in mouse microglia” value (APP/PS1/N-AS, mean±s.e.m., n=6) is given as 1209.9±70.0 pg/1*106cell.
